From patent US20230348418A1, “ISOINDOLINONE COMPOUNDS” (Monte Rosa Therapeutics, Inc., priority 2021, published 2023)
Where two headings read alike, the source gives them in different places. Values belong to the compound of their own block, whether it stands above or below them.

How the values were obtained:
CRBN-DDB1 = CRBN-DDB1 (Homo sapiens, UniProt Q96SW2); assay: HTRF binding of compounds to CRBN
Method in brief: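 CRBN-DDB1 binding measured by HTRF displacement of a Cy5-labelled thalidomide-type probe; 10-point 1:3 compound series, 30 min at ambient temperature. IC50 from curve fitting; Ki from geometric-mean IC50 via Cheng-Prusoff.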

GSPT1 [1] = molecular target: T1, GSPT1 (Homo sapiens, UniProt P15170+Q96SW2); assay: Immunofluorescence assay for GSPT1 degradation in CAL-51 cells (Example 10); assay type: cell-based; set-up: host or cells: CAL-51
T1 sequence (P15170 whole entry): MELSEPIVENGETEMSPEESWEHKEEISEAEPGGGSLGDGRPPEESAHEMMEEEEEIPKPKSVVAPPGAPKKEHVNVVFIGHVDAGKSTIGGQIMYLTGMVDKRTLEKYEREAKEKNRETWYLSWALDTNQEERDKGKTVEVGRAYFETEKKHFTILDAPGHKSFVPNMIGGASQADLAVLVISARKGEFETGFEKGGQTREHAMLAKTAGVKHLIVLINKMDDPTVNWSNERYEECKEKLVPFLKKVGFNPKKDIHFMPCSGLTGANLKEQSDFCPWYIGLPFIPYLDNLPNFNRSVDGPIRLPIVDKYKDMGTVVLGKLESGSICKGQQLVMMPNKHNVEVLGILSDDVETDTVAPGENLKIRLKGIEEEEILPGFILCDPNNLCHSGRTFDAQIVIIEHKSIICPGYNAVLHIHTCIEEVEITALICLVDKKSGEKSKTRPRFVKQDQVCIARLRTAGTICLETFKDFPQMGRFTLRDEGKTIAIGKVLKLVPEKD
T1 sequence (Q96SW2 whole entry): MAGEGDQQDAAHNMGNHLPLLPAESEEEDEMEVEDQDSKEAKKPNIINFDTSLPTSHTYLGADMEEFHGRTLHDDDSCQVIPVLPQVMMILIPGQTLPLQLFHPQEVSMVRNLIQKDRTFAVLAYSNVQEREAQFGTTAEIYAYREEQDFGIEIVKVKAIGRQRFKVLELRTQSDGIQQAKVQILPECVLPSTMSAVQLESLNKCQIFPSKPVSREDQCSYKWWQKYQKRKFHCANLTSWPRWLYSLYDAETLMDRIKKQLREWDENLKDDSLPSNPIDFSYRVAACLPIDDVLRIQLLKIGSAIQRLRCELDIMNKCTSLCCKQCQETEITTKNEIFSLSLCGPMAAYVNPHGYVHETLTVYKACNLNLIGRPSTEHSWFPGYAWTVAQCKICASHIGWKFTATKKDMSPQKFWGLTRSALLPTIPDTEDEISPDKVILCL
T1 sequence (Q16531 2-1140 partner limits assumed): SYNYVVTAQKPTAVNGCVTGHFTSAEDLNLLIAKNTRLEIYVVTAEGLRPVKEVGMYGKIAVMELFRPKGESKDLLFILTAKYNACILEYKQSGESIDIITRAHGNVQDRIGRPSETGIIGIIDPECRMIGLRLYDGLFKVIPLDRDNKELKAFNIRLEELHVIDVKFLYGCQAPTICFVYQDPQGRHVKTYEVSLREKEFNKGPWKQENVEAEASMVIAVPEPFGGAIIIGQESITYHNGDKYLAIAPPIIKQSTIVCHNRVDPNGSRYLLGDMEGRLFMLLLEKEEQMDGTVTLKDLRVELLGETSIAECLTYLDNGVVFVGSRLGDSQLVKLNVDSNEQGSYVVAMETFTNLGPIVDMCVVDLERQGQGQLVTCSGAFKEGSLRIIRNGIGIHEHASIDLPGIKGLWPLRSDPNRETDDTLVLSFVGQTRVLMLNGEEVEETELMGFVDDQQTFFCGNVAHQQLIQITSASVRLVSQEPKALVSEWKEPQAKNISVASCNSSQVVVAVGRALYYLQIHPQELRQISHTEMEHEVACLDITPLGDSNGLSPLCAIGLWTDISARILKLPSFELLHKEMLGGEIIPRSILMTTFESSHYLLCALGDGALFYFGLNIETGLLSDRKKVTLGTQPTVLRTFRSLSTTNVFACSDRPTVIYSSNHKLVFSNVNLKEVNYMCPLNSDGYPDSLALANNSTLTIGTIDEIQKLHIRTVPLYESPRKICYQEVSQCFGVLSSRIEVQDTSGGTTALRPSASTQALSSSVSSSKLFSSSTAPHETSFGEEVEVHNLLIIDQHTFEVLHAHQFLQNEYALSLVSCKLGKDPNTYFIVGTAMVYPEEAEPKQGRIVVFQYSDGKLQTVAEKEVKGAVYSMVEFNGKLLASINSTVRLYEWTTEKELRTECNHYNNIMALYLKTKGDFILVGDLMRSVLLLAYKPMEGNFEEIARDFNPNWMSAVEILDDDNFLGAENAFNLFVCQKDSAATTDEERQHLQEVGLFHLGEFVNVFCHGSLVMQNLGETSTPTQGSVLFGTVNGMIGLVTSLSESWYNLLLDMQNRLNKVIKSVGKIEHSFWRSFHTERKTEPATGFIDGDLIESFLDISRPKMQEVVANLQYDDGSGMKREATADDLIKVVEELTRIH
Experimental: The representative compounds were tested in an immunofluorescence assay for their activity to degrade GSPT1. […] Compounds were stored at 10 mM DMSO stocks. […] Cells were subsequently rinsed with PBS and fixed in 10% Formalin solution (50 μl, Sigma HT5011)) for 20 mins at room temperature. […] Following three further PBS washes, 50 μL blocking buffer (1% BSA, Sigma A4503, in PBS) was added for 45 min for signal-to noise reduction. Primary antibody (human GSPT1, Sigma HPA052488) was diluted in blocking buffer (dil.1/300, 35 μL/well) and incubated with the cells overnight at 4° C. […] After three final PBS washes, samples were conserved in 100 μL PBS in the dark, until measurement. Image acquisition was performed on the Operetta High-Content Imager (Perkin-Elmer). […] For the determination of GSPT1 DC50 values, a custom algorithm implemented in the PerkinElmer image analysis software Harmony-Acapella® was developed. After user-defined setting of adjustment parameters, the analysis was run identically without human intervention for all image fields.
DAPI staining of the nuclei was used to determine the location of cells using standard nuclei detection modules. Segmentation artifacts were removed by threshold-based filters for area, roundness and intensity. The outline of the cells was determined analogously from the sum of the normalized, smoothed DAPI and Actin channel, starting from each nucleus. […] GSPT1 degradation (DC50) was calculated after normalization to controls and data import in CDD vault Database, using non-linear regression.

IKZF1 (Ikaros) = molecular target: T2, IKZF1 (Ikaros) (Homo sapiens, UniProt Q13422); assay: Western blot selectivity assay in MM1S cells: IKZF1; assay type: cell-based; set-up: key: A represents a no degradation observed at 30 μM; B represents trace degradation at 30 μM (below 20%); C represents weak degradation at 30 μM (below 50%); D represents degradation at 30 μM (>90%); E represents degradation at 3 μM (>90%); F represents degradation at 0.3 μM (>90%); conditions: MM1S cells, 0.3, 3 and 30 μM, 6 hours
T2 construct: endogenous in cells; host or cells: MM1S (ATCC CRL-2974)
T2 sequence (Q96SW2 whole entry partner): as the sequence (Q96SW2 whole entry) above
T2 sequence (Q16531 2-1140 partner limits assumed): as the sequence (Q16531 2-1140 partner limits assumed) above
T2 sequence (Q13422 whole entry): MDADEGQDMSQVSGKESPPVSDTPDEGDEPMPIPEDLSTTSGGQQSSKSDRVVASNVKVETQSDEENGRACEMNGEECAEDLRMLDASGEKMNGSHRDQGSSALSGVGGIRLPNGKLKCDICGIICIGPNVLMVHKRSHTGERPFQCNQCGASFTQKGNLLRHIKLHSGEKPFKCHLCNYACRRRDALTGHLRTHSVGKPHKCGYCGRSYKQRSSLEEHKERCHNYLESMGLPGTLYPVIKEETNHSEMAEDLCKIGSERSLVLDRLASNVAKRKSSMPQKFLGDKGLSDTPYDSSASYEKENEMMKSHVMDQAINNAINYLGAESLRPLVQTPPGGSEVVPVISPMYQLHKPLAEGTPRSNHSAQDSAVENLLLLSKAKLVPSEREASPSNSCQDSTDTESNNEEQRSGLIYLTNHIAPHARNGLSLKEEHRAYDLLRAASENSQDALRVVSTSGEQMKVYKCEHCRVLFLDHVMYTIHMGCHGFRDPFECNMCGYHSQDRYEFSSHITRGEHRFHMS
Experimental: (§1) MM1S cells were purchased from ATCC (cat. Number CRL-2974), sub-cultured in 90% RPMI 1640 with 10% FBS, supplemented with 1×P/S and incubated at 37° C., 5% CO2. Compounds were stored as 10 mM DMSO stock. For the assay, MM1S cells (3 million cells/well) were plated in 6-well plates and incubated over night. Cells were treated with respective compounds using a serial dilution: 0.3 μM, 3 μM and 30 μM as well as a vehicle only (DMSO) control for 6 hours. Media with suspension cells was subsequently transferred to 15 mL conical tubes, wells rinsed twice with ice-cold PBS and merged with cell suspension in respective 15 mL conical tube. Cells were spinned down, supernatant aspirated, pellets resuspended in ice-cold PBS and transferred to microtubes. Cells were spinned down, supernatant aspirated and pellets resuspended in 120 μL RIPA lysis buffer supplemented with protease and phosphatase inhibitors. Cell lysates were incubated on ice for 20 minutes followed by centrifugation at >20,000×g for 5 min. Supernatants were transferred to fresh microtubes and stored at −80° C. Total protein concentration was determined using a BCA assay with a BSA standard curve and concentration of all samples was adjusted to 1 mg/mL. 25 μL 4×LDS sample buffer supplemented with 100 mM DTT was added to 75 μL sample. Samples were centrifuged (8,000×g, 1 min) and incubated at 95° C. for 5 min followed by another centrifugation step (8,000×g, 1 min). 20 μL of each sample was loaded on a 4-12% gel alongside a protein molecular weight marker. Gels were run in the presence of MOPS buffer at 80 Volts for 30 min, followed by 120 Volts for 1.5 h and proteins subsequently transferred onto nitrocellulose membranes at 20 Volts for 7 min using an iBlot2 Gel Transfer Device. Membranes were then cut horizontally into two pieces, covering 80-50 kDa and 50-25 kDa. Blocking the membranes was performed by gently shaking in 5% (w/v) skim milk in TSB-T for 1 hr at room temperature. All primary antibodies were used at a 1/1000 in 5% (w/v) BSA dissolved in TBST and incubated with membranes over night at 4° C. Anti-IKZF1 (Ikaros; D6N9Y; 14859S), anti-IKZF3 (Aiolos; D1C1E; 15103S) antibodies were purchased from Cell Signalling Technology, anti-ZFP91 antibody from Bethyl laboratories, anti-GSPT1 from Sigma Aldrich (HPA052488) and anti CK1alpha from AbCam (ab206652). After three washes with 1×TBST for 5 min, HRP-coupled secondary antibodies diluted in 5% (w/v) BSA/TBST (Goat Anti-Rb IgG, dil. 1/10,000; Goat Anti-Mouse IgG, dil. 1/5000) were added for 1 hr at room temperature. After three washes with 1×TBST (5 minutes each), membranes were incubated with ECL reagent for 1 min at room temperature. Chemiluminescence signals were then detected using a LAS-4000 system with default settings and signals quantified using Image Studio Lite software (version 5.2). Membrane parts previously incubated with antibody against CK1alpha were stripped off antibodies by incubating with stripping buffer for 30 minutes followed by three washed with TBST (5 min each), blocking with 5% (w/v) skim milk for 1 hr, and incubation with primary antibody against GAPDH overnight at 4° C. Subsequent washes, incubation with secondary antibody and signal acquisition were performed as described above.

IKZF3 (Aiolos) = molecular target: T3, IKZF3 (Aiolos) (Homo sapiens, UniProt Q9UKT9); assay: Western blot selectivity assay in MM1S cells: IKZF3; assay type: cell-based; set-up: key: A represents a no degradation observed at 30 μM; B represents trace degradation at 30 μM (below 20%); C represents weak degradation at 30 μM (below 50%); D represents degradation at 30 μM (>90%); E represents degradation at 3 μM (>90%); F represents degradation at 0.3 μM (>90%); conditions: MM1S cells, 0.3, 3 and 30 μM, 6 hours
T3 construct: endogenous in cells; host or cells: MM1S (ATCC CRL-2974)
T3 sequence (Q96SW2 whole entry partner): as the sequence (Q96SW2 whole entry) above
T3 sequence (Q16531 2-1140 partner limits assumed): as the sequence (Q16531 2-1140 partner limits assumed) above
T3 sequence (Q9UKT9 whole entry): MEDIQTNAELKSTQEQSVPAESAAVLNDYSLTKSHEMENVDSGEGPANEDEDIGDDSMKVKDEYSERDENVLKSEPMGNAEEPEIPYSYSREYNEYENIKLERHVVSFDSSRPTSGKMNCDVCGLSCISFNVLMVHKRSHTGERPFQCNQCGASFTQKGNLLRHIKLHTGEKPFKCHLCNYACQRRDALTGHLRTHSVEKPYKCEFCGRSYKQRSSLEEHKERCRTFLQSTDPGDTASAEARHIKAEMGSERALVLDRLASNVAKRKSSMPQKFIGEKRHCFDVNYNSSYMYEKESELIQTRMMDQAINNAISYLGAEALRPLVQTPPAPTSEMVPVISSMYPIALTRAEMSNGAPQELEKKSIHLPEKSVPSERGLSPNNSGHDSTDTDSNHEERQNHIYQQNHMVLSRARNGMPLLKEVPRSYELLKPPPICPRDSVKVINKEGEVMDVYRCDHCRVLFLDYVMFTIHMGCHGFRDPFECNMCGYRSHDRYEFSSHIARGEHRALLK
Experimental: as §1, with “After three washes with 1×TBST (5 minutes each), membranes were incubated with ECL reagent for 1 min at room temperature.” left out, “Membrane parts previously incubated with antibody against CK1alpha were stripped off antibodies by incubating with stripping buffer for 30 minutes followed by three washed with TBST (5 min each), blocking with 5% (w/v) skim milk for 1 hr, and incubation with primary antibody against GAPDH overnight at 4° C. Subsequent washes, incubation with secondary antibody and signal acquisition were performed as described above.” left out

GSPT1 [2] = molecular target: T1, GSPT1; assay: Western blot selectivity assay in MM1S cells: GSPT1; assay type: cell-based; set-up: endogenous in cells; host or cells: MM1S (ATCC CRL-2974); conditions: MM1S cells, 0.3, 3 and 30 μM, 6 hours
Experimental: as §1

GSPT1 [3] = molecular target: T1, GSPT1; assay: Immunofluorescence assay for GSPT1 degradation in CAL-51 cells (Example 4); assay type: cell-based; set-up: host or cells: CAL-51
Experimental: The representative compounds were tested in an immunofluorescence assay for their activity to bind to degrade GSPT1. […] Compounds were stored at 10 mM DMSO stocks. […] Cells were subsequently rinsed with PBS and fixed in 10% Formalin solution (50 μl, Sigma HT5011)) for 20 mins at room temperature. […] Following three further PBS washes, […] blocking buffer (1% BSA, Sigma A4503, in PBS) was added for 45 min for signal-to-noise reduction.
Primary antibody (human GSPT1, Sigma HPA052488) was diluted in blocking buffer (dil.1/300, 35 μl/well) and incubated with the cells overnight at 4° C. […] After three final PBS washes, samples were conserved in 100 μl PBS in the dark, until measurement. Image acquisition was performed on the Operetta High-Content Imager (Perkin-Elmer). […] For the determination of GSPT1 DC50 values, a custom algorithm implemented in the PerkinElmer image analysis software Harmony-Acapella® was developed. After user-defined setting of adjustment parameters, the analysis was run identically without human intervention for all image fields. DAPI staining of the nuclei was used to determine the location of cells using standard nuclei detection modules. Segmentation artifacts were removed by threshold-based filters for area, roundness and intensity. The outline of the cells was determined analogously from the sum of the normalized, smoothed DAPI and Actin channel, starting from each nucleus.
GSPT1 degradation (DC50) was calculated after normalization to controls and data import in CDD vault Database, using non-linear regression.

[4] = molecular target: T4, Full length wild-type cereblon CRBN (Homo sapiens, UniProt Q96SW2); assay: Fluorescence polarization (FP) assay, cereblon binding
T4 construct: Full length wild-type cereblon CRBN (80.0 nM, 10 μL) was incubated in assay buffer
T4 sequence (Q96SW2 whole entry): as the sequence (Q96SW2 whole entry) above
Method in brief: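 Full-length wild-type human CRBN (80.0 nM) was preincubated with compound for 30 min at room temperature in 20 mM HEPES pH 8.0, 150 NaCl, 0.5 mM TCEP and 0.05% Tween 20. A Cy5-type thalidomide-linked fluorescent probe was then added. The FP signal was normalized to the DMSO control to derive IC50.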

[5] = read-out: HTRF Class (Cereblon binding, HTRF IC50)
[6] = 6 h, read-out: IF Class (GSPT1 degradation, DC50)

CRBN-DDB1, sequence (Q96SW2 whole entry): as above
CRBN-DDB1, sequence (Q16531 whole entry partner): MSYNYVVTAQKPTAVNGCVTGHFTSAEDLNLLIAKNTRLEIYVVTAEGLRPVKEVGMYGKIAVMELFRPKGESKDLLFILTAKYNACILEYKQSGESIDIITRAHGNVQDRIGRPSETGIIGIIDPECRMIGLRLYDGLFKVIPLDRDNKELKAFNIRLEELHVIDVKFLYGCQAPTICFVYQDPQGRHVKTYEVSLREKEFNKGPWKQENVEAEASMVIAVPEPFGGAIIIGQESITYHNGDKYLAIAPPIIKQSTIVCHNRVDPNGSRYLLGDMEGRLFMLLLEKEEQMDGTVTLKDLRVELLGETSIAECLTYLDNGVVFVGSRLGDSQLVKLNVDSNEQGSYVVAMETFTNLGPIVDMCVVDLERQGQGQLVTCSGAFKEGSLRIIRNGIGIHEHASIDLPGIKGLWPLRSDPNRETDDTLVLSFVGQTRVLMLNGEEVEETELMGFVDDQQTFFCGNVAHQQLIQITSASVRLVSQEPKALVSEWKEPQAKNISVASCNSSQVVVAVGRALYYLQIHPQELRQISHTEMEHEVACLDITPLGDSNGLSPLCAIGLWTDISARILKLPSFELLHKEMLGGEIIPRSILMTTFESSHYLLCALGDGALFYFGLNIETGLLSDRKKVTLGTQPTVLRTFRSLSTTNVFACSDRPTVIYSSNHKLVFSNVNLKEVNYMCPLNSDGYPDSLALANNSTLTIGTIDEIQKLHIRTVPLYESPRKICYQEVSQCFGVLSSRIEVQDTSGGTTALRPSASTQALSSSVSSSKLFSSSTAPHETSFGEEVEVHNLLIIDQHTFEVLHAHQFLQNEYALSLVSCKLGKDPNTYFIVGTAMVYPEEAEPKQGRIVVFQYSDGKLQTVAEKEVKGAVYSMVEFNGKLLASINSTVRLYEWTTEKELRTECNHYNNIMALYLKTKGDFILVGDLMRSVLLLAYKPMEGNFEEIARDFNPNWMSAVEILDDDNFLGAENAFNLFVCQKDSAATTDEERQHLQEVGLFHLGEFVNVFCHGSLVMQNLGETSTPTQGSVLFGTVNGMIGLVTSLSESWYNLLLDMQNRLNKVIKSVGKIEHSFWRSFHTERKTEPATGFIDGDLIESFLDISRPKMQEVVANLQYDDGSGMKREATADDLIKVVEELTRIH

IC50 (CRBN-DDB1; [5]): < 100 nM
DC50 (GSPT1 [1]; [6]): > 300 nM
SMILES: O=C1CCC(N2Cc3ccc(COC(=O)Nc4cc(OC(F)F)c(F)cc4F)cc3C2=O)C(=O)N1 (centres unmarked) [Compound 218, (2-(2,6-dioxopiperidin-3-yl)-3-oxoisoindolin-5-yl)methyl(5-(difluoromethoxy)-2,4-difluorophenyl) carbamate]

SMILES: CC1(c2ccc(NC(=O)OCc3ccc4c(c3)C(=O)N(C3CCC(=O)NC3=O)C4)nc2)CC1 (centres unmarked) [Compound 188]
IC50 (CRBN-DDB1): 100 to 1000 nM
DC50 (GSPT1 [1]; read-out: IF Class (GSPT1 degradation, DC50), 6 h): < 30 nM

IKZF1 degradation (IKZF1 (Ikaros)): A
IKZF3 degradation (IKZF3 (Aiolos)): A
SMILES: O=C1CCC(N2Cc3ccc(COC(=O)Nc4ccc(-c5ccccc5)nc4)cc3C2=O)C(=O)N1 (centres unmarked) [Compound 42]
GSPT1 degradation (GSPT1 [2]): F (F represents degradation at 0.3 μM (>90%))

DC50 (GSPT1 [3]; compounds with code A, read-out: DC50 value): ≤ 30 nM
SMILES: O=C1CCC(N2Cc3ccc(COC(=O)Nc4cc(Cl)cc(OC(F)(F)F)c4)cc3C2=O)C(=O)N1 (centres unmarked) [Compound 11]

IC50 (CRBN-DDB1; [5]): 100 to 1000 nM
DC50 (GSPT1 [1]; [6]): 30 to 300 nM
SMILES: CC(C)c1ccc(F)c(NC(=O)OCc2ccc3c(c2)C(=O)N(C2CCC(=O)NC2=O)C3)c1 (centres unmarked) [Compound 205, (2-(2,6-dioxopiperidin-3-yl)-3-oxoisoindolin-5-yl)methyl (2-fluoro-5-isopropylphenyl)carbamate]

IC50 (CRBN-DDB1; [5]): 100 to 1000 nM
DC50 (GSPT1 [1]; [6]): > 300 nM
SMILES: Cc1cc(C)nc(NC(=O)OCc2ccc3c(c2)C(=O)N(C2CCC(=O)NC2=O)C3)c1 (centres unmarked) [Compound 161, (2-(2,6-dioxopiperidin-3-yl)-3-oxoisoindolin-5-yl)methyl (4,6-dimethylpyridin-2-yl)carbamate]

IC50 ([4]; bounds stated in the text lists b2059-b2061, read-out: IC50 value): < 500 nM
IC50 ([4]; cereblon binding, class code, read-out: rFP IC50): < 500 nM
DC50 (GSPT1 [3]; CAL-51 cells, 6 hours, read-out: Code (activity for GSPT1 degradation, DC50)): 30 to 300 nM
SMILES: O=C1CCC(N2Cc3ccc(COC(=O)Nc4ccc(C5(F)CC5)cc4)cc3C2=O)C(=O)N1 (centres unmarked) [Compound 115, (2-(2,6-dioxopiperidin-3-yl)-3-oxoisoindolin-5-yl)methyl(4-(1-fluorocyclopropyl)phenyl) carbamate]

IC50 (CRBN-DDB1; [5]): 100 to 1000 nM
DC50 (GSPT1 [1]; [6]): > 300 nM
SMILES: CC(C)(C)N1CC(NC(=O)OCc2ccc3c(c2)C(=O)N(C2CCC(=O)NC2=O)C3)C1 (centres unmarked) [Compound 172, (2-(2,6-dioxopiperidin-3-yl)-3-oxoisoindolin-5-yl)methyl (1-(tert-butyl)azetidin-3-yl)carbamate]
